In ChEMBL document CHEMBL4014304, “New potent and selective αvβ3 integrin ligands: Macrocyclic peptides containing RGD motif synthesized by sortase A-mediated ligation” (Bioorg Med Chem Lett, 2017):
Numbered stars: 1 amine (or outer) side, 2 acyl side, 3 side chain; on linkers, the order of the positions; unused ones are H or OH. Square brackets hold non-standard residues; d marks the D form. Peptide text beside a SMILES is read from it. X1 = C[C@@H](O)[C@H](N[*:1])C(=O)NC(=O)[*:2]

Legend:
Assay type in all cases: cell-based
Integrin alpha-V/beta-3 = Integrin alpha-V/beta-3 (Homo sapiens, UniProt P05106+P06756); experiment: Antagonist activity at integrin alphaVbeta3 (unknown origin) expressed in HEK293 cells assessed as reduction in cell adhesion to fibrinogen after 2 hrs by MTT assay
Chain of Integrin alpha-V/beta-3 (P05106 27-788 limits assumed): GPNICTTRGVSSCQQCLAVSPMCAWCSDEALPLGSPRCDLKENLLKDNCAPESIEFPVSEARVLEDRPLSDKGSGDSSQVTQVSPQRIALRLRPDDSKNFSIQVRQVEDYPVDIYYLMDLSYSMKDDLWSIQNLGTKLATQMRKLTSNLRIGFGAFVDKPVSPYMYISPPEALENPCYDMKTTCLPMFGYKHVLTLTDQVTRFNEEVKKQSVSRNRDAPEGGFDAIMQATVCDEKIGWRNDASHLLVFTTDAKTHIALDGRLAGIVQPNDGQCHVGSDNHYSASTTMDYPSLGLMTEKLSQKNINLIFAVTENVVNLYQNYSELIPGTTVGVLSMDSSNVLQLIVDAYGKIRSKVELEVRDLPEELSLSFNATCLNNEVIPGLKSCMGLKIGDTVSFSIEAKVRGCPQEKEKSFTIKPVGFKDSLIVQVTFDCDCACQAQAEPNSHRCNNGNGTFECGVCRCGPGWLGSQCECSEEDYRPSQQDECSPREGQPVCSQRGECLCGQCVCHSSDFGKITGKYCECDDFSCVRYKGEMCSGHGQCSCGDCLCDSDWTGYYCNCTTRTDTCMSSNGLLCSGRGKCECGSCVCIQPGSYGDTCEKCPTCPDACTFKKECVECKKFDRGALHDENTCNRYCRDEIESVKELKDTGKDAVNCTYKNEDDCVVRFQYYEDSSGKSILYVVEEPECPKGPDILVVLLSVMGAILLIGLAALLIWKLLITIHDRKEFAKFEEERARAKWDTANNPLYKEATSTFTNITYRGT
Chain of Integrin alpha-V/beta-3 (P06756 31-889 limits assumed): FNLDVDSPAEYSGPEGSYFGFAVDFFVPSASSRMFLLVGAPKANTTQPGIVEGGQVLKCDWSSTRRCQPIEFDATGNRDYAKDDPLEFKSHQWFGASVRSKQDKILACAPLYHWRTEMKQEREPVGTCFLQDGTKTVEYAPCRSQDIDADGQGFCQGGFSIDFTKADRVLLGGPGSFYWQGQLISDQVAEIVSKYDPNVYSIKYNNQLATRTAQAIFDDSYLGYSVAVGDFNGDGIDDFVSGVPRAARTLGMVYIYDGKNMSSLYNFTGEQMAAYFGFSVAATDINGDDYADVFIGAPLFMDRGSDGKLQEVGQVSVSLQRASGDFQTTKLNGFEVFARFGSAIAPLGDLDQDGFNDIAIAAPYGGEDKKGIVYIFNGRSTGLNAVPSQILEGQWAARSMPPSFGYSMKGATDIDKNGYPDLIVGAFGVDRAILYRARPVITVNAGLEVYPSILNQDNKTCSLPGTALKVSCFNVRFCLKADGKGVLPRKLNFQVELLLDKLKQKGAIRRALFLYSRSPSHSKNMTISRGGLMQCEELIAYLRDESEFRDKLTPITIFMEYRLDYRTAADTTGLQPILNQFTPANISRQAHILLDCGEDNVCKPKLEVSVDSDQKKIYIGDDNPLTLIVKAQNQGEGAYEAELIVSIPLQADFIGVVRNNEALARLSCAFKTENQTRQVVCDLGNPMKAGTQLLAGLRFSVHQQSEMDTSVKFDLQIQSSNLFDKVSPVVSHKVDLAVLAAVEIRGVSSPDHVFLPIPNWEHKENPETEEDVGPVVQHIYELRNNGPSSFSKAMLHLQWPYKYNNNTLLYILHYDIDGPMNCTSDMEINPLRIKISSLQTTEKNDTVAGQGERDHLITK
Chain of Integrin alpha-V/beta-3 (P06756 891-1048 limits assumed): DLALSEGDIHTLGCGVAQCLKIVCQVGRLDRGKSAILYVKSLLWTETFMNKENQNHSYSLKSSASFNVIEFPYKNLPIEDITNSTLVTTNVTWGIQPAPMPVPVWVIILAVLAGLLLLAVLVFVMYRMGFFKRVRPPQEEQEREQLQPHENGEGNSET

[1] = target: Integrin alpha-V/beta-3/alpha-V/beta-5 (Homo sapiens, UniProt P05106+P06756+P18084); experiment: Antagonist activity at integrin alphaVbeta3alphaVbeta5 (unknown origin) expressed in SKOV3 cells assessed as reduction in cell adhesion to fibrinogen after 2 hrs by MTT assay
Chain of Integrin alpha-V/beta-3/alpha-V/beta-5 (P05106 27-788 limits assumed): as the sequence (P05106 27-788 limits assumed) above
Chain of Integrin alpha-V/beta-3/alpha-V/beta-5 (P06756 31-889 limits assumed): as the sequence (P06756 31-889 limits assumed) above
Chain of Integrin alpha-V/beta-3/alpha-V/beta-5 (P06756 891-1048 limits assumed): as the sequence (P06756 891-1048 limits assumed) above
Chain of Integrin alpha-V/beta-3/alpha-V/beta-5 (P18084 24-799 limits assumed): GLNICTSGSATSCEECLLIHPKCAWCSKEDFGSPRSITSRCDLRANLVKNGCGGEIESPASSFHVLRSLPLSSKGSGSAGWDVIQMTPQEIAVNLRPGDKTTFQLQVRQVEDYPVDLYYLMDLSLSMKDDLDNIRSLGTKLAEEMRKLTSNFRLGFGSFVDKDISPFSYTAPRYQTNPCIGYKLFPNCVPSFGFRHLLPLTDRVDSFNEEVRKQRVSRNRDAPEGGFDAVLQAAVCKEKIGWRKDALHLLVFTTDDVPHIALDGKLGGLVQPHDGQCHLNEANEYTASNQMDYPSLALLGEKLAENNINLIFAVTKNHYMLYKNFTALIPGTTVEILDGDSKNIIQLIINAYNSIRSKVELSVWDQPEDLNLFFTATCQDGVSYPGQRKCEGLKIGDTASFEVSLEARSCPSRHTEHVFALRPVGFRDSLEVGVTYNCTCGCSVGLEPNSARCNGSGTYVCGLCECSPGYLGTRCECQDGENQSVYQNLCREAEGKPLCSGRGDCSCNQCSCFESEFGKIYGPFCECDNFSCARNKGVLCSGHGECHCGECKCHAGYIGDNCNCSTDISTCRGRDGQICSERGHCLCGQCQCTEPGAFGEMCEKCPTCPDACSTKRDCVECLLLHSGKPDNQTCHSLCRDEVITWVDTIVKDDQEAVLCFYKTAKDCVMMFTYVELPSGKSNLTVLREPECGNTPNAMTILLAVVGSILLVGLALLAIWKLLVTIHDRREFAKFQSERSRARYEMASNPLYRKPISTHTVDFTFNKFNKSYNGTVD

Integrin alpha-V/beta-5 = Integrin alpha-V/beta-5 (Homo sapiens, UniProt P06756+P18084); experiment: Antagonist activity at integrin alphaVbeta5 (unknown origin) expressed in HT-29 cells assessed as reduction in cell adhesion to vitronectin after 2 hrs by MTT assay
Chain of Integrin alpha-V/beta-5 (P06756 31-889 limits assumed): as the sequence (P06756 31-889 limits assumed) above
Chain of Integrin alpha-V/beta-5 (P06756 891-1048 limits assumed): as the sequence (P06756 891-1048 limits assumed) above
Chain of Integrin alpha-V/beta-5 (P18084 24-799 limits assumed): as the sequence (P18084 24-799 limits assumed) above

Homo sapiens [2] = species: Homo sapiens; experiment: Selectivity ratio of IC50 for integrin alphaVbeta5 (unknown origin) expressed in HT-29 cells to IC50 for integrin alphaVbeta3 (unknown origin) expressed in HEK293 cells
Homo sapiens [3] = species: Homo sapiens; experiment: Selectivity ratio of IC50 for integrin alphaVbeta5 (unknown origin) expressed in HT-29 cells to IC50 for integrin alphaVbeta3alphaVbeta5 (unknown origin) expressed in SKOV3 cells

Row | IC50 (Integrin alpha-V/beta-3) | IC50 [1] | IC50 (Integrin alpha-V/beta-5) | Compound | Ratio IC50 (Homo sapiens [2]) | Ratio IC50 (Homo sapiens [3])
1 | 48.8 µM | 26 µM | 26 µM | CC(C)C[C@@H]1NC(=O)[C@H](CC(=O)O)NC(=O)CNC(=O)[C@H](CCCNC(=N)N)NC(=O)[C@H](CC(=O)O)NC(=O)CNC(=O)[C@H](CCCNC(=N)N)NC(=O)CNC(=O)CNC(=O)CNC(=O)CNC(=O)[C@H]([C@@H](C)O)NC(=O)[C@H](CCC(=O)O)NC(=O)[C@@H]2CCCN2C1=O (cyclo(RGDLPETGGGGRGD)) | – | –
2 | 257 µM | 136 µM | 380 µM | CC(C)C[C@@H]1NC(=O)[C@H](CC(=O)O)NC(=O)CNC(=O)[C@H](CCCNC(=N)N)NC(=O)[C@H](CC(=O)O)NC(=O)CNC(=O)[C@H](CCCNC(=N)N)NC(=O)[C@H](CC(=O)O)NC(=O)CNC(=O)[C@H](CCCNC(=N)N)NC(=O)CNC(=O)[C@H]([C@@H](C)O)NC(=O)[C@H](CCC(=O)O)NC(=O)[C@@H]2CCCN2C1=O (cyclo(RGDLPETGRGDRGD)) | – | –
3 | 171 µM | 102 µM | 2950 µM | H-GGGGGGGRGDLPETGGS-OH | – | –
4 | 619 µM | 753 µM | 546 µM | H-RGDRGD-OH | – | –

More lines, now with the values behind:

Row | Compound | IC50 (Integrin alpha-V/beta-3) | IC50 [1] | IC50 (Integrin alpha-V/beta-5) | Ratio IC50 (Homo sapiens [2]) | Ratio IC50 (Homo sapiens [3])
5 | CC(C)C[C@@H]1NC(=O)[C@H](CC(=O)O)NC(=O)CNC(=O)[C@H](CCCNC(=N)N)NC(=O)CNC(=O)CNC(=O)CNC(=O)CNC(=O)CNC(=O)CNC(=O)CNC(=O)NC(=O)[C@H]([C@@H](C)O)NC(=O)[C@H](CCC(=O)O)NC(=O)[C@@H]2CCCN2C1=O (cyclo(RGDLPE[X1]GGGGGGG)) | 7.2 µM | 19 µM | 522 µM | – | –
6 | H-GGGGRGDRGDLPETGGS-OH | 33 µM | 4 µM | 1730 µM | > 50 | > 400
7 | H-GRGDRGDRGDLPETGGS-OH | 152 µM | 74 µM | 25 µM | – | –
